Assays:
[1] = target: Human immunodeficiency virus type 1 reverse transcriptase (Human immunodeficiency virus 1) (UniProt Q72547); test: (§1) Inhibition of HIV1 reverse transcriptase activity assessed as residual enzyme activity by poly(rA)n.oligo(dT)12-18-directed incorporation of [3H]dTTP into DNA
[2] = target: Human immunodeficiency virus type 1 reverse transcriptase (Human immunodeficiency virus 1, UniProt Q72547); test: as §1
[3] = tested on: Human immunodeficiency virus 1; test: Inhibition of HIV1 RNase H activity assessed as residual enzyme activity by poly(rA)n.oligo(dT)12-18-directed incorporation of [3H]dTTP into DNA at 100 uM relative to control
[4] = Inhibition of HIV2 reverse transcriptase-mediated DNA polymerase activity; set-up: species or system Human immunodeficiency virus 2

Row | IC90 [1] [µM] | IC50 [2] [µM] | Activity [3] [%] | IC50 [4] [nM] | Compound
1 | 0.28 | 0.077 | 100 |  | CCCCC/C=C\C/C=C\CCCCCCCC(=O)OC[C@H](CO[C@H]1O[C@H](CS(=O)(=O)O)[C@@H](O)[C@H](O)[C@H]1O)OC(=O)CCCCCCCCCCCCCCC
2 | 0.076 | 0.024 | 66 | 34 | CCCCCCCC/C=C\CCCCCCCC(=O)OC[C@H](CO[C@H]1O[C@H](CS(=O)(=O)O)[C@@H](O)[C@H](O)[C@H]1O)OC(=O)CCCCCCCCCCCCCCC
3 | > 100 | 99.4 | 100 |  | CCCCC/C=C\C/C=C\CCCCCCCC(=O)OC[C@H](CO[C@@H]1O[C@H](CO[C@H]2O[C@H](CO)[C@H](O)[C@H](OC(=O)CCCCCCCCCCCCCCC)[C@H]2O)[C@H](O)[C@H](O)[C@H]1O)OC(=O)CCCCCCCCCCCCCCC
4 | > 100 | 38 | 100 |  | CCCCC/C=C\C/C=C\CCCCCCCC(=O)OC[C@H](CO[C@@H]1O[C@H](CO)[C@H](O)[C@H](O)[C@H]1O)OC(=O)CCCCCCCCCCCCCCC
5 | 0.465 | 0.112 | 45 |  | CCCCCCCCCCCCCCCC(=O)OC[C@H](CO[C@H]1O[C@H](CS(=O)(=O)O)[C@@H](O)[C@H](O)[C@H]1O)OC(=O)CCCCCCCCCCCCCCC
6 | > 100 | 65 | 100 |  | CCCCCCCC/C=C\CCCCCCCC(=O)OC[C@H](CO[C@@H]1O[C@H](CO)[C@H](O)[C@H](O)[C@H]1O)OC(=O)CCCCCCCCCCCCCCC
7 |  | > 100 |  |  | OC[C@@H](O)CO[C@H]1O[C@H](CO)[C@@H](O)[C@H](O)[C@H]1O
8 |  | > 100 |  |  | OC[C@@H](O)CO[C@@H]1O[C@H](CO[C@H]2O[C@H](CO)[C@H](O)[C@H](O)[C@H]2O)[C@H](O)[C@H](O)[C@H]1O
9 | > 100 | > 100 | 100 |  | CCCCCCCCCCCCCCCC(=O)OC[C@H](CO[C@@H]1O[C@H](CO)[C@H](O)[C@H](O)[C@H]1O)OC(=O)CCCCCCCCCCCCCCC
10 |  | > 100 |  |  | OC[C@@H](O)CO[C@@H]1O[C@H](CO)[C@H](O)[C@H](O)[C@H]1O
11 | 14 | 2.95 | 100 |  | CCCCC/C=C\C/C=C\CCCCCCCC(=O)OC[C@H](CO[C@H]1O[C@H](CS(=O)(=O)O)[C@@H](O)[C@H](OC(=O)CCCCCCCCCCCCCCC)[C@H]1OC(=O)CCCCCCCCCCCCCCC)OC(=O)CCCCCCCCCCCCCCC
12 | > 100 | 75 |  |  | O=S(=O)(O)C[C@H]1O[C@H](OC[C@H](O)CO)[C@H](O)[C@@H](O)[C@@H]1O

Reference: ChEMBL document CHEMBL1150919, “The inhibition of the reverse transcriptase of HIV-1 by the natural sulfoglycolipids from cyanobacteria: contribution of different moieties to their high potency” (J Nat Prod, 1998)
